Reference: article PMC8765437, “GSK3640254 Is a Novel HIV-1 Maturation Inhibitor with an Optimized Virology Profile” (Antimicrobial Agents and Chemotherapy, 2022)
Where two headings read alike, the source gives them in different places.

System: NLRepRlucP373S viruses containing Gag SDMs or gag/pr genes from clinical isolates
Experiment: Multiple-cycle replication assay, NLRepRluc reporter viruses in MT-2 cells, luciferase endpoint
Assay type: cell-based, HIV-1
Excerpt: Multiple-cycle assays using recombinant viruses or clinical isolates were used to assess MI antiviral activity as described previously ([10]). pNLRepRlucP373S (the P373S change is in the Gag gene and converts an outlier polymorphism in the NL4-3 gene to the prevalent amino acid in the population) plasmids containing SDMs in Gag or gag/pr regions from clinical isolates were transfected into HEK 293T cells, and the supernatant containing recombinant virus was harvested after 4 to 5 days. Virus was used to infect MT-2 cells in the presence of a 3-fold serially diluted compound at a final dimethyl sulfoxide (DMSO) concentration of 1%. The inocula of the reporter viruses were determined based on the luciferase activity detected on day 4 postinfection. The MOI (ratio of infectious virions to target cells) of reporter-free laboratory strains and clinical isolates was 0.005, as derived from a tissue culture infectious dose study. Clinical isolates or reporter-free viruses were examined in the reporter CEM-NKR-CCR5-Luc cells or PBMCs at MOIs ranging from 0.005 to 0.01. Each infection started with a drug-free preincubation of the cell-virus mixtures, performed at 37°C and 5% CO2 for either 1 h at 2 times the final cell density (reporter viruses) or 1 h (reporter-free laboratory strains) or 3 h (clinical isolates) using cell pellets in 0.5 mL of medium. After preincubation, cell-virus mixtures were added to compound-containing 96-well plates for a final cell density of either 10,000 (MT-2 cells for reporter viruses), 20,000 (MT-2 and PM1 cells for reporter-free laboratory strains), 200,000 (PBMCs for clinical isolates), or 500,000 (CEM-NKR-CCR5-Luc for reporter-free laboratory strains) cells per well. The CEM-NKR-CCR5-Luc cell assay was performed in the presence of Polybrene (10 μg/mL). Virus growth was determined on days 4 to 5 postinfection for reporter variants or days 5 to 11 for the other viruses. The reporter viruses were detected by a luciferase assay according to manufacturer protocols (Brite-Glo luciferase kit [Promega] for CEM-NKR-CCR5-Luc cells and Dual-Luciferase Reporter 1000 assay system [Promega] for the other cells), and luminescence was detected on a Wallac Trilux. The growth of clinical isolates in PBMCs was quantitated by reverse transcriptase activity in a 96-well scintillation proximity assay (SPA). Twenty microliters of culture supernatants was mixed with 40 μL of reaction cocktail (62.5 mM Tris-HCl [pH 7.8], 100 mM KCl, 0.0625% NP-40, 2.5 mM dithiothreitol [DTT], 6.25 mM MgCl2, 1 mM EGTA, 6.25 μg/mL of poly rA, 2.5 μg/mL of streptavidin SPA beads prebound with biotinylated-dT12-18, and 1 μCi of [^3H]TTP). Mixtures were incubated at 37°C for ∼3 h and quenched with 100 μl of 0.25 M EDTA per well. Luminescence was detected on a Wallac Trilux programmed for tritium counting with SPA beads in opaque plates. The growth of the reporter-free laboratory M-tropic strains and clinical isolates was monitored by a p24 enzyme-linked immunosorbent assay (ELISA; PerkinElmer Life Sciences, Waltham, MA) performed on culture supernatants. […] A 1:1,000 dilution of cell supernatant in PBS was generally observed to fall in the dynamic range of the endpoint signal.
Maximal percent inhibition values were calculated as MPI = 100 – (mean signals at the 2 highest concentrations of compound/mean signal of 2 no-drug control wells) × 100.

C=C(C)[C@@H]1CC[C@]2(NCCN3CCS(=O)(=O)CC3)CC[C@]3(C)[C@H](CC[C@@H]4[C@@]5(C)CC=C(c6ccc(C(=O)O)cc6)C(C)(C)[C@@H]5CC[C@]43C)[C@@H]12 [GSK’795, reference compound]
MPI (A366V-containing viruses): −13 to 408%
EC50 (Human immunodeficiency virus 1, MT2, Table S1, SDM A326T/V362I/V370A): ≥ 3000 nM
EC50 (Human immunodeficiency virus 1, MT2, Table S1, SDM S368R/V370A): 2 nM
EC50 (Human immunodeficiency virus 1, MT2, Table S1, SDM T332S/V362I/PrR41G): 700 nM
EC50 (Human immunodeficiency virus 1, MT2, Table S1, SDM V362I/V370A): ≥ 3000 nM
EC50 (Human immunodeficiency virus 1, MT2, Table S1, SDM V370A): 6 nM
EC50 (Human immunodeficiency virus 1, MT2, Table S1, SDM V370A/ΔT371): 7 nM
EC50 (Human immunodeficiency virus 1, MT2, Table S1, SDM ΔV370): 6 nM
EC50 (Human immunodeficiency virus 1, MT2, Table S1, subtype B SDM Wild-type (V, QVT)): 5 nM
EC50 (Human immunodeficiency virus 1, MT2, read-out: EC50 (range), Subtype C gag/pr viruses, n=11): 3 to 22 nM
EC50 (Human immunodeficiency virus 1, MT2, read-out: EC50 (range), V362I only viruses, n=9): 3 to 54 nM
EC50 (Human immunodeficiency virus 1, MT2, read-out: EC50 (range), Wild-type subtype B, n=5): 1 to 6 nM
EC50 (Human immunodeficiency virus 1, MT2, read-out: Mean ± SD EC50, A366V-containing viruses (A366V, V362I/A366V, V362I/A366V/V370M, A366V/V370M)): > 3000 nM
EC50 (Human immunodeficiency virus 1, MT2, read-out: Mean ± SD EC50, SDM A326T/V362I/V370A): > 3000 nM
EC50 (Human immunodeficiency virus 1, MT2, read-out: Mean ± SD EC50, SDM A364V): > 3000 nM
EC50 (Human immunodeficiency virus 1, MT2, read-out: Mean ± SD EC50, SDM R361K/V362I/L363M): 552 ± 971 nM
EC50 (Human immunodeficiency virus 1, MT2, read-out: Mean ± SD EC50, SDM T332S/V362I/prR41G): 704 ± 606 nM
EC50 (Human immunodeficiency virus 1, MT2, read-out: Mean ± SD EC50, SDM V362I/V370A): > 3000 nM
EC50 (Human immunodeficiency virus 1, MT2, read-out: Mean ± SD EC50, SDM V370A): 6 nM
EC50 (Human immunodeficiency virus 1, MT2, read-out: Mean ± SD EC50, SDM Wild type): 5 ± 3 nM
EC50 (Human immunodeficiency virus 1, MT2, read-out: Mean ± SD EC50, SDM ΔV370): 6 ± 2 nM
EC50 (Human immunodeficiency virus 1, MT2, read-out: Mean ± SD EC50, Subtype B gag/pr viruses, n=24): 66 nM
EC50 (Human immunodeficiency virus 1, MT2, read-out: Mean ± SD EC50, Subtype C gag/pr viruses, n=11): 9.1 ± 5.6 nM
EC50 (Human immunodeficiency virus 1, MT2, read-out: Mean ± SD EC50, V362I only viruses, n=9): 11.1 ± 16.3 nM
EC50 (Human immunodeficiency virus 1, MT2, read-out: Mean ± SD EC50, V362I/ΔV370 virus, n=1): 1400 nM
EC50 (Human immunodeficiency virus 1, MT2, read-out: Mean ± SD EC50, Wild-type subtype B (V362, Q369, V370, T371), n=5): 2.8 ± 2.5 nM
EC50 (Human immunodeficiency virus 1, MT2, read-out: Median EC50, Subtype B gag/pr viruses, n=24): 5 nM
EC50 (Human immunodeficiency virus 1, MT2, read-out: Median EC50, Subtype C gag/pr viruses, n=11): 7 nM
EC50 (Human immunodeficiency virus 1, MT2, read-out: Median EC50, V362I only viruses, n=9): 5 nM
EC50 (Human immunodeficiency virus 1, MT2, read-out: Median EC50, Wild-type subtype B, n=5): 1 nM
EC90 (Human immunodeficiency virus 1, MT2, read-out: PBA EC90, Table S1, SDM R361K/V362I/L363M): 321000 nM
EC90 (Human immunodeficiency virus 1, MT2, read-out: PBA EC90, Table S1, SDM S368R/V370A): 40 nM
EC90 (Human immunodeficiency virus 1, MT2, read-out: PBA EC90, Table S1, SDM T332S/V362I/PrR41G): 422000 nM
EC90 (Human immunodeficiency virus 1, MT2, read-out: PBA EC90, Table S1, SDM V370A): 50 nM
EC90 (Human immunodeficiency virus 1, MT2, read-out: PBA EC90, Table S1, SDM V370A/ΔT371): 230 nM
EC90 (Human immunodeficiency virus 1, MT2, read-out: PBA EC90, Table S1, SDM ΔV370): 1030 nM
EC90 (Human immunodeficiency virus 1, MT2, read-out: PBA EC90, Table S1, subtype B SDM Wild-type (V, QVT)): 110 nM
EC90 (Human immunodeficiency virus 1, MT2, read-out: PBA EC90, subtype B gag/pr 4NRR (Wild-type)): 70 nM
EC90 (Human immunodeficiency virus 1, MT2, read-out: PBA EC90, subtype B gag/pr 28-MDR (Wild-type)): 100 nM
EC90 (Human immunodeficiency virus 1, MT2, read-out: PBA EC90, subtype B gag/pr 92BR014 (V370M)): 370 nM
EC90 (Human immunodeficiency virus 1, MT2, read-out: PBA EC90, subtype B gag/pr 92BR018 (V, QAΔ)): 970 nM
EC90 (Human immunodeficiency virus 1, MT2, read-out: PBA EC90, subtype B gag/pr 92TH014 (V362I)): 670 nM
EC90 (Human immunodeficiency virus 1, MT2, read-out: PBA EC90, subtype B gag/pr 92TH026 (V362I)): 210 nM
EC90 (Human immunodeficiency virus 1, MT2, read-out: PBA EC90, subtype B gag/pr 92US072 (V362I)): 130 nM
EC90 (Human immunodeficiency virus 1, MT2, read-out: PBA EC90, subtype B gag/pr 92US729 (Wild-type)): 70 nM
EC90 (Human immunodeficiency virus 1, MT2, read-out: PBA EC90, subtype B gag/pr 93BR008 (V362I)): 120 nM
EC90 (Human immunodeficiency virus 1, MT2, read-out: PBA EC90, subtype B gag/pr 93BR009 (V370M)): 130 nM
EC90 (Human immunodeficiency virus 1, MT2, read-out: PBA EC90, subtype B gag/pr 93BR017 (V, QAΔ)): 600 nM
EC90 (Human immunodeficiency virus 1, MT2, read-out: PBA EC90, subtype B gag/pr 93BR022 (V, QAΔ)): 630 nM
EC90 (Human immunodeficiency virus 1, MT2, read-out: PBA EC90, subtype B gag/pr 93TH0647 (V362I)): 60 nM
EC90 (Human immunodeficiency virus 1, MT2, read-out: PBA EC90, subtype B gag/pr 93US141 (V362I)): 250 nM
EC90 (Human immunodeficiency virus 1, MT2, read-out: PBA EC90, subtype B gag/pr 411-1-C (Wild-type)): 40 nM
EC90 (Human immunodeficiency virus 1, MT2, read-out: PBA EC90, subtype B gag/pr 220162 (Wild-type)): 600 nM
EC90 (Human immunodeficiency virus 1, MT2, read-out: PBA EC90, subtype B gag/pr 400024 (V370M)): 79000 nM
EC90 (Human immunodeficiency virus 1, MT2, read-out: PBA EC90, subtype B gag/pr 400051 (V370A)): 30 nM
EC90 (Human immunodeficiency virus 1, MT2, read-out: PBA EC90, subtype B gag/pr 1000038 (V362I/V370A)): 977000 nM
